The values that follow come from patent publication US6998415B2, “Substituted sulfonylphenylheterocycles as cyclooxygenase-2 and 5-lipoxygenase inhibitors” (Pharmacia Corporation, priority 1996, dated 2006).

Data set [1] has as its target T1, COX-2 (UniProt P35354).
T1 sequence (P35354 1-604): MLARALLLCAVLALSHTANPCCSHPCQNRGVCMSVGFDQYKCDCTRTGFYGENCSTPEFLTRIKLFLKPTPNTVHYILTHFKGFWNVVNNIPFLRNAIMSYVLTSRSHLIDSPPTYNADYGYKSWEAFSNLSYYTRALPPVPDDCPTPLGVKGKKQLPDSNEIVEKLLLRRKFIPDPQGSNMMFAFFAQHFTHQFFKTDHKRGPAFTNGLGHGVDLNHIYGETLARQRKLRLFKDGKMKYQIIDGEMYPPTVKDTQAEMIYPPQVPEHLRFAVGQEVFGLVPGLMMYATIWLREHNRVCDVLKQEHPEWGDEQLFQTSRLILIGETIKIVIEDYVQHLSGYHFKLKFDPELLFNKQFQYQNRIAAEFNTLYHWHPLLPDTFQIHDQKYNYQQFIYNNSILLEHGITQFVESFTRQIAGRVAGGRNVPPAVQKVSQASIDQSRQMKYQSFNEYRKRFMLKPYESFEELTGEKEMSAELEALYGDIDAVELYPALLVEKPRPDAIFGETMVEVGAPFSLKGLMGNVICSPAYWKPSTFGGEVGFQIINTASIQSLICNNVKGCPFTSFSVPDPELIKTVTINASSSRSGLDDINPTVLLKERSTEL
In words: Assay for COX-2 activity in vitro (PGE2 ELISA, recombinant enzyme). To be noted: recombinant COX-2, arachidonic acid 10 μM, pre-incubation 10–20 minutes. In kind it is biochemical, human or murine. The method, then: Evaluation of COX-1 and COX-2 Activity in vitro
The COX-2 inhibit on activity of the compounds or this invention illustrated in the Examples was determined by the following methods. a. Preparation of Recombinant COX Baculoviruses
(§1) Recombinant COX-1 and COX-2 were prepared as described by Gierse et al, [J. Biochem., 305, 479–84 (1995)]. A 2.0 kb fragment containing the coding region of either human or murine COX-1 or human or murine COX-2 was cloned into a BamHI site of the baculovirus transfer vector pVL1393 (Invitrogen) to generate the baculovirus transfer vectors for COX-1 and COX-2 in a manner similar to the method of D. R. O'Reilly et al (Baculovirus Expression Vectors: A Laboratory Manual (1992)). Recombinant baculoviruses were isolated by transfecting 4 μg of baculovirus transfer vector DNA into SF9 insect cells (2×10^8) along with 200 ng of linearized baculovirus plasmid DNA by the calcium phosphate method. See M. D. Summers and G. E. Smith, A Manual of Methods for Baculovirus Vectors and Insect Cell Culture Procedures, Texas Agric. Exp. Station Bull. 1555 (1987). Recombinant viruses were purified by three rounds of plaque purification and high titer (10^7–10^8 pfu/ml) stocks of virus were prepared. For large scale production, SF9 insect cells were infected in 10 liter fermentors (0.5×10^6/ml) with the recombinant baculovirus stock such that the multiplicity of infection was 0.1. After 72 hours the cells were centrifuged and the cell pellet homogenized in Tris/Sucrose (50 mM: 25%, pH 8.0) containing 1% 3-[(3-cholamidopropyl)dimethylammonio]-1-propanesulfonate (CHAPS). The homogenate was centrifuged at 10,000×G for 30 minutes, and the resultant supernatant was stored at −80° C. before being assayed for COX activity. […]
(§2) b. Assay for COX-1 and COX-2 Activity
(§3) COX activity was assayed as PGE2 formed/μg protein/time using an ELISA to detect the prostaglandin released. CHAPS-solubilized insect cell membranes containing the appropriate COX enzyme were incubated in a potassium phosphate buffer (50 mM, pH 8.0) containing epinephrine, phenol, and heme with the addition of arachidonic acid (10 μM). Compounds were pre-incubated with the enzyme for 10–20 minutes prior to the addition of arachidonic acid. Any reaction between the arachidonic acid and the enzyme was stopped after ten minutes at 37° C./room temperature by transferring 40 μl of reaction mix into 160 μl ELISA buffer and 25 μM indomethacin. The PGE2 formed was measured by standard ELISA technology (Cayman Chemical).

For data set [2], the system named is rat paw edema (carrageenan foot edema). The experiment in a line: Rat carrageenan foot pad edema test. Type of data set: in vivo, rat (male Sprague-Dawley). The following applies: dosed orally 1 h before carrageenan, foot volume 3 h after carrageenan. As for the experimental part: Rat Carrageenan Foot Pad Edema Test
The carrageenan foot edema test was performed with materials, reagents and procedures essentially as described by winter, et al., (Proc. Soc. Exp. Biol. Med., 111, 544 (1962)). Male Sprague-Dawley rats were selected in each group so that the average body weight was as close as possible. Rats were fasted with free access to water for over sixteen hours prior to the test. The rats were dosed orally (1 mL) with compounds suspended in vehicle containing 0.5% methylcellulose and 0.025% surfactant, or with vehicle alone. One hour later a subplantar injection of 0.1 mL of 1% solution of carrageenan/sterile 0.9% saline was administered and the volume of the injected foot was measured with a displacement plethysmometer connected to a pressure transducer with a digital indicator. Three hours after the injection of the carrageenan, the volume of the foot was again measured. The average foot swelling in a group of drug-treated animals was compared with that of a group of placebo-treated animals and the percentage inhibition of edema was determined (Otterness and Bliven, Laboratory Models for Testing NSAIDs, in Non-steroidal Anti-Inflammatory Drugs, (J. Lombardino, ed. 1985)).

Data set [3] addresses COX-1 (UniProt P23219). The experiment in a line: Assay for COX-1 activity in vitro (PGE2 ELISA, recombinant enzyme). To be noted: recombinant COX-1, arachidonic acid 10 μM, pre-incubation 10–20 minutes. Type of data set: biochemical, human or murine. The method, then:
Evaluation of COX-1 and COX-2 Activity in vitro a. Preparation of Recombinant COX Baculoviruses
as §1, §2, §3

In data set [4] the target is T2, 5-lipoxygenase (5-LO) (Homo sapiens, UniProt P09917).
T2 construct: calcium ionophore-induced Leukotriene B4 (LTB4) production in human whole blood; endogenous in cells; host or cells: human whole blood (healthy donors), diluted 1:4 in RPMI 1640
T2 sequence (P09917 1-674): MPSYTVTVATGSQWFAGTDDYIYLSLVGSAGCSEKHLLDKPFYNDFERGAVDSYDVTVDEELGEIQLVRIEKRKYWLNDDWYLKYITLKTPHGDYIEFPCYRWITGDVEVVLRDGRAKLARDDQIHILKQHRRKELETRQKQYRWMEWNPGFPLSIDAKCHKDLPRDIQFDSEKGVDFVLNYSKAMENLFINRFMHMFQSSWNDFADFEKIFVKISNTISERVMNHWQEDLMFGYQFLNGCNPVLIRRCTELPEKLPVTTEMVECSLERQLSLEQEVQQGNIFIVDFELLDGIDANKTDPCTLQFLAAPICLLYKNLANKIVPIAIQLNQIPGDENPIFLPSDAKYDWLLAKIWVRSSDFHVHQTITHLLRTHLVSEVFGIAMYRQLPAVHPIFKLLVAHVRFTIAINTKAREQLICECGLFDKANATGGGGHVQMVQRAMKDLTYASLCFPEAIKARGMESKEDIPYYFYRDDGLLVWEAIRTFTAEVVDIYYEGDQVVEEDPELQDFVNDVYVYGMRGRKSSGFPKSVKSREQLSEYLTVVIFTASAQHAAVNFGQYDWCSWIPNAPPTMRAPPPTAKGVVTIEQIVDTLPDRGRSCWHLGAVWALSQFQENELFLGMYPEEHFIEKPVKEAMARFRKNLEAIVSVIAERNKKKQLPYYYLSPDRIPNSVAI
In words: Assay for 5-lipoxygenase activity: calcium ionophore-induced LTB4 production in human whole blood. In kind it is cell-based. The following applies: A-23187 (20 μg/ml)-induced LTB4 in human whole blood; mean IC50. As for the experimental part:
Assay for 5-Lipoxygenase Activity
The 5-lipoxygenase (5-LO) activity of the compounds were determined by the calcium ionophore-induced Leukotriene B4 (LTB4) production in human whole blood. Venous blood was collected from healthy human donors using heparin as an anti-coagulant. Human blood samples (0.2 ml of a 1:4 dilution in RPMI 1640 medium) were incubated in 96-well culture plates for 15 minutes at 37° C. with test compounds dissolved in ethanol (EtOH; final concentration<1%), or vehicle. Typically 7 concentrations of test compounds were examined in duplicate. A-23187 [Sigma] was added to the blood to a final concentration of 20 μg/ml, and the mixtures were incubated for 10 minutes at 37° C. The reaction was stopped by placing the samples on ice. The samples were then centrifuged at 800×g at 4° C. for 10 minutes to pellet the cells, and the supernatants were recovered for quantitation of LTB4 by LISA (Cayman Chemical Co.; sensitivity 3 pg/ml). IC50's were estimated from a four parameter logistic model with two parameters fixed, the minimum (0% inhibition) and maximum (100% inhibition). The IC50 value is the concentration that produces 50% inhibition between the fixed values of the minimum and maximum. Data is reported as the mean IC50 for each compound.

Bounds are passed on as bounds.

As to `COC1(c2cc(F)cc(OCc3nc(-c4ccc(F)cc4)c(-c4ccc(S(C)(=O)=O)cc4)o3)c2)CCOCC1` [Example 3, 4-(4-Fluorophenyl)-2-[[3-fluoro-5-(3,4,5,6-tetrahydro-4-methoxy-2H-pyran-4-yl)phenoxy)methyl]-5-(4-(methylsulfonyl)phenyl)oxazole], the figures for the 50% inhibitory concentration (IC50) in data set [1], in data set [3] and in data set [4] were below 0.1 µM, above 100 µM and 0.02 µM, respectively. The “RAT PAW EDEMA % Inhibition @ 10 mg/kg body weight” value in data set [2] turned out to be 15%.

Turning to `COC1(c2cc(F)cc(OCc3nc(-c4ccc(F)cc4)c(-c4ccc(S(N)(=O)=O)cc4)o3)c2)CCOCC1` [Example 14, 4-[2-[[3-Fluoro-5-(3,4,5,6-tetrahydro-4-methoxypyran-4-yl)phenoxy]methyl]-4-(4-fluorophenyl)oxazol-5-yl]benzenesulfonamide], the melting point was 70 to 72 °C. In addition, in data set [1], the IC50 is below 0.1 µM. Also, the IC50 in data set [3] turned out to be 5 µM. In data set [4], the IC50 was found to be 0.2 µM.

In turn, `COC1(c2cccc(COCc3nc(-c4ccccc4)c(-c4ccc(S(N)(=O)=O)cc4)o3)c2)CCOCC1` [Example 17, 4-[2-[[[3-(3,4,5,6-Tetrahydro-4-methoxypyran-4-yl)phenylmethyl]oxy]methyl]-4-phenyloxazol-5-yl]benzenesulfonamide] showed a melting point of 62.1 to 71.2 °C. Also, in data set [1], the IC50 turned out to be 0.5 µM. In data set [3], the IC50 was above 100 µM. The IC50 in data set [4] turned out to be 9.8 µM.

`COC1(c2cccc(CSCCc3nc(-c4ccccc4)c(-c4ccc(S(N)(=O)=O)cc4)o3)c2)CCOCC1` [Example 19, 4-[2-[[[3-(3,4,5,6-Tetrahydro-4-methoxypyran-4-yl)phenylmethyl]thio]ethyl]-4-phenyloxazol-5-yl]benzenesulfonamide] returned a melting point of 60.9 to 66.4 °C. Besides, the IC50 in data set [1] is below 0.1 µM. Moreover, the IC50 in data set [3] is 2.3 µM. Also, the IC50 in data set [4] was above 10 µM.

Regarding `COC1(c2cccc(CSc3nc(-c4ccccc4)c(-c4ccc(S(N)(=O)=O)cc4)o3)c2)CCOCC1` [Example 21], the melting point lay within 74.7 to 78.5 °C. In data set [1], the IC50 is below 0.1 µM. The IC50 in data set [3] amounted to 2.6 µM. The half-inhibitory concentration (IC50) in data set [4] is above 10 µM.
